# Experiments:
# [1] = test system: opioid analgesia in postsurgical patients; conditions: cited from earlier work; for Effect on analgesic potency of morphine: low-dose cotreatment with morphine, postsurgical patients, 24-hour test periods
# [2] = test system: patients with IBS; test: Open clinical study of low dose naltrexone in patients with IBS (daily symptom diary, global self-assessment); format: in vivo, human
# Method: An open study of low dose naltrexone administration in four (4) patients with IBS was initiated. The patients were evaluated for IBS, based on the Rome criteria. All patients were screened for other disorders or medications that could cause gastrointestinal symptoms of IBS. These included inflammatory bowel disease, cancer, lactose intolerance, and neurological disorders, as well as the use of narcotic medications. […] Each subject was fully informed of the benefits and possible side effects of the study and thereafter freely gave their consent to participate in the study.
# Each patient maintained a daily diary of the symptoms prior to and during treatment with 1-3 mg/day of naltrexone. Each participant noted the following symptoms:
# Patients were permitted to remain on medications other than anticholinergics and anti-diarrheal agents (i.e., fiber bulking agents or lactose enzyme replacement if needed).
# Naltrexone (tradename Revia; 50 mg tablets; DuPont Merck) was purchased at a pharmacy. Single tablets were crushed and dissolved in 50 ml boiled distilled water, and stored unfrozen in a refrigerator. Each patient received 2 ml (2 mg) orally each morning with breakfast. Medication was prepared weekly and used for seven doses, with the remainder being discarded.
# [3] = test system: IBS patients; conditions: 30 mg, three times daily; cited from earlier work
# [4] = test system: constipation-predominant IBS patients; conditions: eight patients, 16 mg three times a week, eight weeks; cited from earlier work
# [5] = Patient A, after 24 months, 2.5-3.0 mg/day
# [6] = Patient B, after 12 months, 1.5-2.3 mg/day
# [7] = Patient D, after 9 months, 2.5-3.0 mg/day
compound,measurement,setting,value
C=CCN1CC[C@]23c4c5ccc(O)c4O[C@H]2C(=O)CC[C@@]3(O)[C@H]1C5 [naloxone],Effect on analgesic potency of morphine,[1],markedly enhanced the analgesic potency of morphine
O=C1CC[C@@]2(O)[C@H]3Cc4ccc(O)c5c4[C@@]2(CCN3CC2CC2)[C@H]1O5 [naltrexone],Abdominal cramping,[2]; [5],completely ceased
same,Frequency of bowel actions,[2]; [5],returned to normal levels
same,Cramping abdominal pain,"[2]; Patient A, after nine months of treatment",no cramping abdominal pain
same,Stool frequency,"[2]; Patient A, after nine months of treatment, oral daily, before treatment about 4-8 times per day",1-2 formed bowel movements per day
same,Global improvement on the 0-4 scale,"[2]; Patient A, 0 = no observable change, 4 = marked and substantially improved",4
same,Global improvement on the 0-4 scale,[2]; Patient B,3
same,Frequency of bowel actions,[2]; [6],no change
same,Reduction in abdominal cramping,[2]; [6],50%
same,Abdominal pain associated with cramping,"[2]; Patient B, after 75 days of treatment",total elimination of abdominal pain associated with cramping
same,Stool frequency,"[2]; Patient B, after 75 days of treatment, before treatment 10-12 diarrheal movements per day",2-4 bowel movements per day
same,Global improvement on the 0-4 scale,[2]; Patient C,2.5
same,IBS symptoms,"[2]; Patient C, 24 month follow-up, diagnosed with fibromyalgia, 1-2 mg/day, stopped after 6 months",did not respond
same,Abdominal pain associated with cramping,"[2]; Patient C, after 75 days of 2 mg/day",eliminated
same,Frequency of loose bowel movements,"[2]; Patient C, after 75 days of 2 mg/day, before treatment 2-3 loose bowel movements daily",halved in frequency
same,Global improvement on the 0-4 scale,[2]; Patient D,2.5
same,Decrease in cramping,[2]; [7],75%
same,Reduction in frequency of bowel actions,[2]; [7],20%
same,IBS symptoms after treatment was halted,"[2]; Patient D, low-dose treatment halted after 9 months",IBS symptoms returned
same,Abdominal cramping symptoms,"[2]; Patient D, upon initiation of low dose treatment, continued over 70 days",immediate relief of abdominal cramping symptoms
same,Reduction in stool frequency,"[2]; Patient D, upon initiation, continued over 70 day treatment period, before treatment 7-10 unformed diarrheal movements per day",50%
same,IBS symptoms on every other day dosing schedule,"[2]; Patients A and C, dosing changed to every other day",IBS symptoms returned
same,Side effects,"[2]; four patients, 2 mg orally each morning",None of the four patients reported discernible side effects
C=C1CC[C@@]2(O)[C@H]3Cc4ccc(O)c5c4[C@@]2(CCN3CC2CC2)[C@H]1O5 [nalmefene],Effect on morphine's analgesic potency,"[1]; ca. 15 μg, IV",markedly enhance morphine's analgesic potency
same,Effect on opioid analgesia,[1]; doses of >0.5 mg,markedly attenuate opioid analgesia
same,Effect on analgesic potency of morphine,[1],markedly enhanced the analgesic potency of morphine
fedotizine,Treatment of IBS,[3],successful treatment
"C=C1CCC2(O)C3Cc4ccc(OC5OC(C(=O)O)C(O)C(O)C5O)c5c4C2(CCN3CC2CC2)C1O5 (stereo not shown) [nalmefene glucuronide, Nalmefene glucuronide]",Abdominal pain or bloating,[4],did not reduce abdominal pain or bloating
same,Stool consistency,[4],not improved
same,Stool frequency,[4],increased stool frequency
same,Transit time,[4],decreased transit time

# From US6737400B2, “Method and composition for treating irritable bowel syndrome using low doses of opioid receptor antagonists” (Albert Einstein College of Medicine of Yeshiva University, priority 1999, dated 2004)
